Assay results: patent US4107158A, “Process for making an octapeptide useful for the treatment of diabetes” (Choay S.A., priority 1974, dated 1978)
Where no end group is shown, it is not given here.

Experiments:
hepatic cells = assay: Insulin binding to hepatic cells; format: cell-based
Method: In the same way, the ratio of insulin binding to hepatic cells placed in a suitable reaction medium was measured. When the medium contains octapeptide (I), the ratio of insulin binding to the hepatic cells increases. The result is similar if the said cells are incubated with octapeptide (I).

[1] = tested on: isolated hemidiaphragm of the rat; assay: Consumption of glucose in vitro, isolated rat hemidiaphragm; format: cell-based, Wistar albino male rats
Method: To follow this consumption, the isolated hemidiaphragm of the rat in vitro was used. The method employed is that described by Park et al. (Effect of insulin on free glucose content of rat diaphragm in vitro -- Amer. J. Physiol. 182 : 12 - 16, 1955). The hemidiaphragm derived from Wistar albino male rats each weighing 200 to 250 g was used. The rats were fed freely for 7 days and then starved for 24 hours. The solutions studied contained 2 mg/ml of glucose, 500 μU/ml of insulin. The compound (I) was introduced at 250 μg/ml. The consumption of glucose related to the weight of tissue in grams and per hour was under these conditions: […]

diabetic rats = assay: Effect on glycemia in diabetic animals; format: in vivo; conditions: glucose 0.5 g/kg; for course of glycemia after simultaneous injection with glucose: diabetic rats fasted 4 hours, octapeptide 2 μg/g
Method: In this test, the drop in glycemia was compared after the simultaneous injection of glucose, on the one hand, and, on the other hand, either of the octapeptide at the dosage of 2 μg (I), or of insulin, or again of both at once. In that latter case the dosage of octapeptide used was also 2μg/g. The tests were carried out on diabetic rats, kept fasting for 4 hours before the injection of glucose (at the dose of 0.5 g/kg of animal).

mice [2] = assay: Tolerance: acute and subacute toxicity study in mice; format: in vivo; conditions: 1 month, daily dosages 5 to 10 times the active dosage
Method: An acute and subacute toxicity study was carried out on mice for 1 month, each mouse receiving daily dosages corresponding to 5 to 10 times the active dosage.

[3] = tested on: glucose receptors of the Langerhans islets; assay: Glucose-stimulated insulin liberation from Langerhans islets of treated animals; format: cell-based; conditions: islets removed one day or four days after injection of octapeptide; versus controls
Method: Finally, the effect of the octapeptide (I) on the glucose receptors of the Langerhans islets was determined. For this purpose, the octapeptide (I) was injected into animals.
One day or four days later, the animals were killed and the islets of Langerhans removed. The latter were placed in a reaction medium supplemented with glucose, and the amount of insulin liberated was determined and compared tocontrols.

[4] = tested on: insulin receptors of lipid cells; assay: Insulin binding to trypsinated lipid cells; format: cell-based; conditions: octapeptide introduced into the medium; trypsinated cells alone no longer fix insulin
From the text: In an attempt to elucidate the mechanism of action of the octapeptide (I) with respect to insulin, the phenomena were first studied at the level of the insulin receptors of lipid cells trypsinated to destroy said receptors.

[5] = target: glyceraldehyde 3-phosphate dehydrogenase (Homo sapiens, UniProt P04406); assay: Enzymatic effect in vitro: lifting of somantine inhibition of glyceraldehyde 3-phosphate dehydrogenase; format: biochemical
glyceraldehyde 3-phosphate dehydrogenase, sequence (P04406 whole entry, species assumed): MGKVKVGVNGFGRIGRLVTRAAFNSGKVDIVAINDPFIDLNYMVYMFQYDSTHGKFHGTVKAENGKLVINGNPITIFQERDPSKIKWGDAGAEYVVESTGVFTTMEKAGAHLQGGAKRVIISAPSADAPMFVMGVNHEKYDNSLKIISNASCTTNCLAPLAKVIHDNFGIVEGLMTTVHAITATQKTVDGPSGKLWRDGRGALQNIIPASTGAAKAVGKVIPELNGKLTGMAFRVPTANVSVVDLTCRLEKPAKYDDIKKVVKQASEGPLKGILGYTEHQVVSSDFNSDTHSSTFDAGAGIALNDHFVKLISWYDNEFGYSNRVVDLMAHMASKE
Method: In this test, the compound (I) was tested for its ability to raise the inhibition of a somantine extracted from a plasma with respect to the action of glyceraldehyde 3-phosphate dehydrogenase.
To this end, the activity of the enzyme in the presence successively of somantine alone, of the compound (1) alone, and finally in the presence of somantine and of the compound (I), were measured.
In this test, the glyceraldehyde 3-phosphate dehydrogenase was used at a concentration of […], the somantine at 25 μg/ml, and the compound (I) at 50 μg/ml.
The method used for the measurements is that of Pihl and Lang (J. Biol. Chem 237 : 1356 - 1362, 1962).
The percentage of inhibition of the enzyme found under these conditions is as follows: […]

adult rabbits = assay: Effect on the in vivo effect of insulin: intravenous glucose tolerance in the rabbit
Method: The assays were carried out in the course of the tests carried out to determine the resistance to glucose injected by the intravenous route in the rabbit.
These tests were done on adult rabbits, which had been subjected to prior fasting for 24 hours. Blood was drawn off and the glucose level in the blood samples was determined. The measurement was carried out by the ferricyanide method as adapted for the "Technicon Autoanalyser" (J. Biol. Chem. 120 : 51 - 55, 1937). In this way the glucose level on fasting, then its variation after the intravenous injection of glucose, at the dose of 1 gram per kilo, was determined. These measurements were then renewed in rabbits which had received, 5 minutes after the glucose, an intravenous injection of the compound (1) (5μg/kg).

mice [6] = assay: Influence on glycemia in mice after glucose injection; format: in vivo
From the text: d. Influence of octapeptide (I) on glycemia has been determined in mice under conditions similar to those described for rabbits. The experiment included two series of tests aimed at studying the immediate effects and the prolonged effects.
In the first series of tests, a simultaneous injection of glucose and of the octapeptide (1) was made, and the lowering of glycemia with respect to that of control animals which had not received glucose, was followed as a function of time.
The injections were respectively of 0.25 g of glucose and 2 mg per kilo of body weight of the animal, namely about 40 μg, of octapeptide (I) or […].
In the second series of tests, the mice received the product before the injection of glucose. Three injections each of 40μg of octapeptide (1) were administered respectively 72, 48 and 24 hous before the injection of glucose.

| Substance | ratio of insulin binding to hepatic cells (hepatic cells; cells incubated with octapeptide (I)) | ratio of insulin binding to hepatic cells (hepatic cells; medium contains octapeptide (I)) | consumption of glucose in the presence of insulin (in words) ([1]; compound (I) 250 μg/ml added to glucose + insulin) | course of glycemia after simultaneous injection with glucose (diabetic rats) | toxic effect, macro and microscopic studies (mice [2]) | level of insulin liberated by Langerhans islets in glucose-supplemented medium [3] | insulin binding to trypsinated lipid cells [4] | effect on the inhibiting effect of somantine (in words) ([5]; compound (I) 50 μg/ml together with somantine 25 μg/ml) | effect on the activity of the enzyme (in words) ([5]; compound (I) alone, 50 μg/ml) | inhibition at 50 µg/mL ([5]; enzyme 0.5 μml, somantine 25 μg/ml, compound (I) 50 μg/ml, read-out: percentage of inhibition of the enzyme) [%] | glucose level reached, compared with fasting level (adult rabbits; glucose 1 g/kg i.v., compound 5 μg/kg i.v.) | decrease in the glucose level after i.v. glucose (adult rabbits; glucose 1 g/kg i.v., compound 5 μg/kg i.v. 5 minutes after glucose, versus rabbits without compound) | persistence of effect on the carbohydrate metabolism after injection (adult rabbits; similar tests at intervals of several days) | drop in glycemia, immediate effect (mice [6]; simultaneous injection of glucose and about 40 μg octapeptide, versus controls) | drop in glycemia, prolonged effect (mice [6]; three injections of 40 μg at 72, 48 and 24 hours before glucose, versus controls receiving only glucose) | Consumption of glucose ([1]; related to weight of tissue in grams and per hour, glucose 2 mg/ml, insulin 500 μU/ml, compound (I) 250 μg/ml) [mg] | time after which glycemia rises again (diabetic rats; diabetic rats) |
| --- | --- | --- | --- | --- | --- | --- | --- | --- | --- | --- | --- | --- | --- | --- | --- | --- | --- |
| LSRLFDNA [compound (I), leucyl--seryl--arginyl--leucyl--phenylalanyl--aspartyl--asparaginyl-alanine] | similar | increases | increased | practically unmodified | not shown any toxic effect | very substantial increase | the binking reasppears | partly suppressed | practically without effect | 1 | less than those which were measured in the fasting rabbits | greater | persists several days | distinctly more accentuated | more rapid drop in glycemia |  |  |
| insulin: insulin, 500 μU/ml in glucose solution in the hemidiaphragm test |  |  |  | decreases rapidly, stabilises, then rises again |  |  |  |  |  |  |  |  |  |  |  | 4.10 ± 0.15 | about 120 minutes |
